Experimental findings from article PMC3955700 (Bioorganic & medicinal chemistry letters, 2013) are described below.

This test has as its system brain / choroid plexus uptake. Nature of the test: PET imaging in cynomolgus monkey. It counts as in vivo.

For `Cl.O=C(Cc1ccc(OC2CCNCC2)cc1OCCF)N1CCC(N2C(=O)CCc3ccccc32)CC1` [Compound 1, 1-(1-(2-(2-(2-fluoroethoxy)-4-(piperidin-4-yloxy)phenyl)acetyl)piperidin-4-yl)-3,4-dihydroquinolin-2(1H)-one], under “5 mg/kg of 1 given 30 min prior to [18F]1”, the “effect of blocking on [18F]1 uptake” value is given as “increase of overall brain activity, primarily in the region of the choroid plexus”. The “effect of chase on [18F]1 choroid plexus uptake” value (5 mg/kg of 1 given 45 min after [18F]1) is reported as “uptake within the choroid plexus was completely removed”.
